In series [1] the test system is PD1 signal sequence plus 10 amino acids fused to Gaussia Luciferase (PD1-ss+10aa/Gaussia Luciferase). Put plainly: Dox Induced PD1-ss-Gluc Assay. Format: cell-based. Conditions: 24 hr, read-out: 24 hr Dox Inducible PD1ssGluc 293FRT/TO: Mean IC50. From the text:
FIp-In 293 T-REx™ cells were transfected with pcDNA™5/FRT/TO plasmid inserted with cDNA encoding Gaussia Luciferase fused to the 3′ end of cDNA encoding PD1 signal sequence plus 10 amino acids (N-[…]-C) (SEQ ID NO: 1). Transfected cells were selected for resistance to the selectable markers Hygromycin and Blasticidin to create a stable cell line that contained the PD1-ss+10aa/Gaussia Luciferase cDNA insert whose expression was regulated under the T-REx™ system. The day before assay, cells were trypsinized and plated in 384-well tissue culture plates. The next day, compound dilutions in DMSO/media containing doxycycline were added to the wells and incubated at 37° C., 5% CO2.
(§1) For chemical structures that include one or more stereoisomers, but are illustrated without indicating stereochemistry, the assay data refers to a mixture of stereoisomers.

In series [2] the test system is full length TNFα (amino acids 1-233) fused to Gaussia Luciferase. Put plainly: Dox Induced TNFα-FL-Gluc Assay. The following applies: 24 hr, read-out: 24 hr Dox Inducible TNFaFLGluc 293FRT/TO: Mean IC50. The class given is cell-based.
Description: FIp-In 293 T-REx™ cells were transfected with pcDNA™5/FRT/TO plasmid inserted with cDNA encoding Gaussia Luciferase fused to the 3′ end of cDNA encoding full length TNFα (amino acids 1-233). Transfected cells were selected for resistance to the selectable markers Hygromycin and Blasticidin to create a stable cell line that contained the TNFα-FL/Gaussia Luciferase cDNA insert whose expression was regulated under the T-REx™ system. The day before assay, cells were trypsinized and plated in 384-well tissue culture plates. The next day, compound dilutions in DMSO/media containing doxycycline were added to the wells and incubated at 37° C., 5% CO2.
as §1

In series [3] the test system is multiple myeloma cell line NCl-H929. Put plainly: H929 Cell Viability Assay. The class given is cell-based, human. The following applies: Homo sapiens, NCI-H929, 48 h. As to the method:
The human multiple myeloma cell line NCl-H929 was cultured in Advanced RPMI 1640 media (Gibco®) supplemented with 6% fetal bovine serum, 2 mM Glutamine, and 1× Penicillin/Streptomycin. On the day of assay, cells were resuspended in RPMI 1640 media supplemented with 10% fetal bovine serum, 2 mM Glutamine, and 1× Penicillin/Streptmycin and plated in 384-well tissue culture plates and treated with compound dilutions in DMSO/media. Plates were incubated at 37° C., 5% CO2 for 48 hours. After 48 hours, Celltiter-Glo® (Promega) was added to each well and luciferase signal was quantified using Tecan Infinite M1000 Pro for cell viability determination.
as §1

In series [4] the test system is multiple myeloma cell line U266B1. Kind of series: U266 Cell Viability Assay. Format: cell-based, human. Conditions: Homo sapiens, U-266, 48 hr. As to the method:
The human multiple myeloma cell line U266B1 was cultured in RPMI 1640 media supplemented with 10% fetal bovine serum, 2 mM Glutamine, and 1× Penicillin/Streptomycin. Cells were plated in 384-well tissue culture plates and treated with compound dilutions in DMSO/media. Plates were incubated at 37° C., 5% CO2 for 48 hours. After 48 hours, Celltiter-Glo® (Promega) was added to each well and luciferase signal was quantified using Tecan Infinite M1000 Pro for cell viability determination.
For chemical structures that include one or more stereoisomers, but are illustrated without indicating stereochemistry, the assay data refers to a mixture of stereoisomers

Series [5] can be described thus: In Vitro Microsome Stability Assay (human). The class given is in vitro ADME. As to the method: (§2) Potassium phosphate (423 μL of a 0.1 M solution) was added to 8-strip deep well tubes followed by human, mouse, rat, or monkey microsomes (25 μL of a 20 mg/mL solution). The tubes were then placed on ice and the test article (2 μL of a 0.25 mM solution in DMSO) was added. The mixture was preincubated at 37° C. for 3 to 5 minutes (shaking at 150 rpm) then the reaction was initiated by adding 50 μL NADPH. An aliquot of samples (100 μL) were collected at 0 and 30 min and 200 μL of an acetonitrile mixture containing IS (compound 914) was added to quench the reaction. After centrifuging for 10 min at 4000 rpm, a mixed solution of the 20 μL of the supernatant (20 μL) plus 100 μL ACN/H2O (1:1) were injected for LC-MS/MS analysis. Liver microsome stability is assessed by the % remaining of compound at 30 min which is calculated using the following equation: [(AUCanalyteT=30/AUCIS)/(AUCanalyteT=0/AUCIS)]*100
as §1

Series [6] can be described thus: In Vitro Microsome Stability Assay (mouse). Format: in vitro ADME. As to the method:
as §2, §1

The nature of series [7]: In Vitro Microsome Stability Assay (rat). The class given is in vitro ADME. As to the method:
as §2, §1

Series [8] can be described thus: In Vitro Microsome Stability Assay (monkey). The class given is in vitro ADME. As to the method:
as §2, §1

The mark [9] stands for this setting: H929, read-out: 48 hr H929 Viability Celltiter-Glo: Mean EC50.
The mark [10] stands for this setting: U266, read-out: 48 hr U266 Viability Celltiter-Glo: Mean EC50.

Molecules are shown by their SMILES. Read-outs that look alike come from different tables or passages of the source.

Consider `C=C1CN(S(=O)(=O)c2ccc(C)cc2)CCCN(CC2CCCCC2)CC(C)CN(S(=O)(=O)c2ccc(C)cc2)C1` (centres unmarked) [B2, 1-(cyclohexylmethyl)-3-methyl-5,9-bis(4-methylbenzenesulfonyl)-7-methylidene-1,5,9-triazacyclododecane], for which the IC50 in series [1] (Dox inducible, 293FRT/TO cells) is 1.72 µM; in series [2] (Dox inducible, 293FRT/TO cells), more than 25 µM. Besides, the EC50 in series [3] (H929, Celltiter-Glo) is more than 25 µM; in series [4] (U266, Celltiter-Glo), more than 25 µM. In series [5] (human liver microsomes, 30 min w/ NADPH), the “Liver Microsome Stability-% Left after 30 min w/ NADPH (%) Human” value (from here on “Liver Microsome Stability-% Left … (%) Human”) is recorded as 0.35%. Also, the “Liver Microsome Stability-% Left after 30 min w/ NADPH (%) Mouse” value (“Liver Microsome Stability-% Left … (%) Mouse” below) in series [6] (mouse liver microsomes, 30 min w/ NADPH) is 0.55%. The “Liver Microsome Stability-% Left after 30 min w/ NADPH (%) Rat” value (from here on “Liver Microsome Stability-% Left … (%) Rat”) in series [7] (rat liver microsomes, 30 min w/ NADPH) amounted to 1.46%. Besides, the “Liver Microsome Stability-% Left after 30 min w/ NADPH (%) Monkey” value (“Liver Microsome Stability-% Left … (%) Monkey” for short) in series [8] (monkey liver microsomes, 30 min w/ NADPH) was determined as 0.23%.
Regarding `CN(C)c1ccc(S(=O)(=O)N2CCCN(CC3CCCCC3)CCCN(S(=O)(=O)N3CCCCC3)CC3(COC3)C2)cc1` [A17, 4-{[10-(cyclohexylmethyl)-14-(piperidine-1-sulfonyl)-2-oxa-6,10,14-triazaspiro[3.11]pentadecan-6-yl]sulfonyl}-N,N-dimethylaniline], the IC50 in series [1] (293FRT/TO) is 0.943 µM; in series [2] (293FRT/TO) it was more than 25 µM. Further, the EC50 in series [3] (setting [9]) and in series [4] (setting [10]) was more than 25 µM each time. Further, the “Liver Microsome Stability-% Left … (%) Human” value in series [5] (human, 30 min, NADPH) worked out at 0.49%. In addition, in series [6] (mouse, 30 min, NADPH), the “Liver Microsome Stability-% Left … (%) Mouse” value was 0.41%. In addition, the “Liver Microsome Stability-% Left … (%) Rat” value in series [7] (rat, 30 min, NADPH) was found to be 1.06%. Moreover, in series [8] (monkey, 30 min, NADPH), the “Liver Microsome Stability-% Left … (%) Monkey” value came out at 0.36%.
As for `COc1ccc(S(=O)(=O)N2CCCN(CC3CCCCC3)CCCN(S(=O)(=O)N3CCCCC3)CC3(CC3)C2)cc1` [A31, 9-(cyclohexylmethyl)-5-(4-methoxybenzenesulfonyl)-13-(piperidine-1-sulfonyl)-5,9,13-triazaspiro[2.11]tetradecane], the values for the IC50 in series [1] (293FRT/TO) and in series [2] (293FRT/TO) were 0.619 µM and more than 25 µM, respectively. Besides, the EC50 in series [3] (setting [9]) and in series [4] (setting [10]) was more than 25 µM throughout. Further, the “Liver Microsome Stability-% Left … (%) Human” value in series [5] (human, 30 min, NADPH) is listed as 0.05%. In addition, in series [6] (mouse, 30 min, NADPH), the “Liver Microsome Stability-% Left … (%) Mouse” value was found to be 0.25%. The “Liver Microsome Stability-% Left … (%) Rat” value in series [7] (rat, 30 min, NADPH) stood at 0.09%. In addition, in series [8] (monkey, 30 min, NADPH), the “Liver Microsome Stability-% Left … (%) Monkey” value stood at 0.03%.
Regarding `C=C1CN(S(=O)(=O)c2ccc(N(C)C)cc2)CCCN(CC2CCCCC2)CCCN(S(=O)(=O)N2CCc3cccc(Cl)c3C2)C1` [A51, 4-({5-[(8-chloro-1,2,3,4-tetrahydroisoquinolin-2-yl)sulfonyl]-9-(cyclohexylmethyl)-3-methylidene-1,5,9-triazacyclododecan-1-yl}sulfonyl)-N,N-dimethylaniline], the values for the IC50 in series [1] (293FRT/TO) and in series [2] (293FRT/TO) were 0.0614 µM and 3.07 µM, respectively. For the same molecule, the EC50 in series [3] (setting [9]) was 6.15 µM; in series [4] (setting [10]), more than 25 µM. The “Liver Microsome Stability-% Left … (%) Human” value in series [5] (human, 30 min, NADPH) was 26.7%. In series [6] (mouse, 30 min, NADPH), the “Liver Microsome Stability-% Left … (%) Mouse” value came to 28%. For the same molecule, in series [7] (rat, 30 min, NADPH), the “Liver Microsome Stability-% Left … (%) Rat” value is listed as 34.7%. The “Liver Microsome Stability-% Left … (%) Monkey” value in series [8] (monkey, 30 min, NADPH) turned out to be 23.6%.
As for `COc1ccc(F)cc1N1CCN(S(=O)(=O)N2CCCN(CC3CCCCC3)CCCN(S(=O)(=O)c3ccc(N(C)C)cc3)C[C@H](C)C2)CC1` [A176], the EC50 in series [3] (H929, Celltiter-Glo) is 3.11 µM; in series [4] (U266, Celltiter-Glo), more than 25 µM.
Turning to `CN(C)c1ccc(S(=O)(=O)N2CCCN(CC3CCCCC3)CCCN(S(=O)(=O)N3CCC(O)CC3)CC3(CC3)C2)cc1` [A28, 1-{[9-(cyclohexylmethyl)-13-[4-(dimethylamino)benzenesulfonyl]-5,9,13-triazaspiro[2.11]tetradecan-5-yl]sulfonyl}piperidin-4-ol], the results for the IC50 in series [1] (293FRT/TO) and in series [2] (293FRT/TO) were 5.25 µM and more than 25 µM, respectively. The figures for the EC50 in series [3] (setting [9]) and in series [4] (setting [10]) were 10.4 µM and more than 25 µM, respectively. The “Liver Microsome Stability-% Left … (%) Mouse” value in series [6] (mouse, 30 min, NADPH) was 0.06%. Moreover, the “Liver Microsome Stability-% Left … (%) Rat” value in series [7] (rat, 30 min, NADPH) was 0.14%. The “Liver Microsome Stability-% Left … (%) Monkey” value in series [8] (monkey, 30 min, NADPH) is given as 0.06%.

One may read the EC50 as the midpoint of the concentration-response curve.

These data come from patent US11578055B2, “Triazacyclododecansulfonamide (“TCD”)-based protein secretion inhibitors” (KEZAR LIFE SCIENCES, priority 2018, dated 2023).
